Measured values as given in ChEMBL document CHEMBL4190316, “Synthesis and biological evaluation of 4-biphenylamino-5-halo-2(5H)-furanones as potential anticancer agents” (Eur J Med Chem, 2017).
The source made the active and inactive calls. The calls are words filed in the database; no cut-off is given here.

Key:
[1] = Cytotoxicity against human NCI-EC1 cells assessed as reduction in cell viability after 72 hrs by MTT assay; assay type: functional, cell-based
MCF7 [2] = experiment: Cell cycle arrest in human MCF7 cells assessed as accumulation at G1 phase at 40 uM after 24 hrs by propidium iodide staining based flow cytometry (reference value: 69.92%); assay type: functional
MCF7 [3] = experiment: Cell cycle arrest in human MCF7 cells assessed as accumulation at G2/M phase at 10 uM after 24 hrs by propidium iodide staining based flow cytometry (reference value: 6.91%); assay type: functional
MCF7 [4] = experiment: Induction of apoptosis in human MCF7 cells assessed as early apoptotic cells at 40 uM after 24 hrs by Annexin-V/PI staining based flow cytometry (reference value: 0.13%); assay type: functional
MCF7 [5] = experiment: Induction of apoptosis in human MCF7 cells assessed as necrotic cells at 20 uM after 72 hrs by Annexin-V/PI staining based flow cytometry (reference value: 1.36%); assay type: functional
Quadruplex DNA [6] = experiment: Binding affinity to c-Myc G-quadruplex DNA (unknown origin) at 20 uM incubated for 2 mins by fluorescence emission spectra method; assay type: nucleic-acid assay
MCF7 [7] = experiment: Cell cycle arrest in human MCF7 cells assessed as accumulation at G2/M phase at 40 uM after 72 hrs by propidium iodide staining based flow cytometry (reference value: 17.99%); assay type: functional
MCF7 [8] = experiment: Induction of apoptosis in human MCF7 cells assessed as late apoptotic cells at 10 uM after 72 hrs by Annexin-V/PI staining based flow cytometry (reference value: 0.60%); assay type: functional
MCF7 [9] = experiment: Induction of apoptosis in human MCF7 cells assessed as necrotic cells at 40 uM after 72 hrs by Annexin-V/PI staining based flow cytometry (reference value: 1.36%); assay type: functional
MCF7 [10] = experiment: Induction of apoptosis in human MCF7 cells assessed as live cells at 20 uM after 24 hrs by Annexin-V/PI staining based flow cytometry (reference value: 94.88%); assay type: functional
MCF7 [11] = experiment: Cell cycle arrest in human MCF7 cells assessed as accumulation at G1 phase at 40 uM after 72 hrs by propidium iodide staining based flow cytometry (reference value: 66.42%); assay type: functional
MCF7 [12] = experiment: Cell cycle arrest in human MCF7 cells assessed as accumulation at sub-G1 phase at 10 to 40 uM after 24 to 72 hrs by propidium iodide staining based flow cytometry; assay type: functional
MCF7 [13] = experiment: Cell cycle arrest in human MCF7 cells assessed as accumulation at S phase at 10 uM after 72 hrs by propidium iodide staining based flow cytometry (reference value: 15.59%); assay type: functional
HaCaT = experiment: Cytotoxicity against human HaCaT cells assessed as reduction in cell viability after 72 hrs by MTT assay; assay type: cell-based
MCF7 [14] = experiment: Cell cycle arrest in human MCF7 cells assessed as accumulation at G1 phase at 10 uM after 24 hrs by propidium iodide staining based flow cytometry (reference value: 69.92%); assay type: functional
MCF7 [15] = experiment: Cell cycle arrest in human MCF7 cells assessed as accumulation at S phase at 40 uM after 72 hrs by propidium iodide staining based flow cytometry (reference value: 15.59%); assay type: functional
MCF7 [16] = experiment: Cell cycle arrest in human MCF7 cells assessed as accumulation at S phase at 20 uM after 24 hrs by propidium iodide staining based flow cytometry (reference value: 23.16%); assay type: functional
MCF7 [17] = experiment: Cell cycle arrest in human MCF7 cells assessed as accumulation at S phase at 40 uM after 24 hrs by propidium iodide staining based flow cytometry (reference value: 23.16%); assay type: functional
MCF7 [18] = experiment: Induction of apoptosis in human MCF7 cells assessed as live cells at 40 uM after 24 hrs by Annexin-V/PI staining based flow cytometry (reference value: 94.88%); assay type: functional
MCF7 [19] = experiment: Induction of apoptosis in human MCF7 cells assessed as late apoptotic cells at 40 uM after 72 hrs by Annexin-V/PI staining based flow cytometry (reference value: 0.60%); assay type: functional
MCF7 [20] = experiment: Induction of apoptosis in human MCF7 cells assessed as live cells at 10 uM after 72 hrs by Annexin-V/PI staining based flow cytometry (reference value: 97.7%); assay type: functional
MDA-MB-231 = experiment: Cytotoxicity against human MDA-MB-231 cells assessed as reduction in cell viability after 72 hrs by MTT assay; assay type: functional, cell-based; conditions: MDA-MB-231, 72 h
MCF7 [21] = experiment: Induction of apoptosis in human MCF7 cells assessed as early apoptotic cells at 10 uM after 72 hrs by Annexin-V/PI staining based flow cytometry (reference value: 0.28%); assay type: functional
MCF7 [22] = experiment: Induction of apoptosis in human MCF7 cells assessed as early apoptotic cells at 40 uM after 72 hrs by Annexin-V/PI staining based flow cytometry (reference value: 0.28%); assay type: functional
CNE = experiment: Cytotoxicity against human CNE1 cells assessed as reduction in cell viability after 72 hrs by MTT assay; assay type: functional, cell-based
MCF7 [23] = experiment: Cell cycle arrest in human MCF7 cells assessed as accumulation at G1 phase at 20 uM after 24 hrs by propidium iodide staining based flow cytometry (reference value: 69.92%); assay type: functional
Quadruplex DNA [24] = experiment: Stabilization of c-Myc G-quadruplex DNA in human MCF7 cells assessed as downregulation of c-Myc protein expression after 72 hrs by Western blot method; assay type: cell-based
MCF7 [25] = experiment: Induction of apoptosis in human MCF7 cells assessed as necrotic cells at 10 uM after 72 hrs by Annexin-V/PI staining based flow cytometry (reference value: 1.36%); assay type: functional
MCF7 [26] = experiment: Cell cycle arrest in human MCF7 cells assessed as accumulation at G2/M phase at 40 uM after 24 hrs by propidium iodide staining based flow cytometry (reference value: 6.91%); assay type: functional
MCF7 [27] = experiment: Induction of apoptosis in human MCF7 cells assessed as necrotic cells at 20 uM after 24 hrs by Annexin-V/PI staining based flow cytometry (reference value: 4.03%); assay type: functional
Quadruplex DNA [28] = experiment: Binding affinity to c-Myc G-quadruplex DNA (unknown origin) at 20 uM incubated for 3 mins by electronic absorption spectra method; assay type: nucleic-acid assay
MCF7 [29] = experiment: Induction of apoptosis in human MCF7 cells assessed as late apoptotic cells at 10 uM after 24 hrs by Annexin-V/PI staining based flow cytometry (reference value: 0.96%); assay type: functional
MCF7 [30] = experiment: Cell cycle arrest in human MCF7 cells assessed as accumulation at S phase at 10 uM after 24 hrs by propidium iodide staining based flow cytometry (reference value: 23.16%); assay type: functional
MCF7 [31] = experiment: Induction of apoptosis in human MCF7 cells assessed as early apoptotic cells at 20 uM after 72 hrs by Annexin-V/PI staining based flow cytometry (reference value: 0.28%); assay type: functional
Quadruplex DNA [32] = experiment: Effect on conformation of c-Myc G-quadruplex DNA (unknown origin) at 1 mM measured every 3 mins by CD spectroscopic analysis; assay type: nucleic-acid assay
MCF7 [33] = experiment: Induction of apoptosis in human MCF7 cells assessed as live cells at 10 uM after 24 hrs by Annexin-V/PI staining based flow cytometry (reference value: 94.88%); assay type: functional
MCF7 [34] = experiment: Cytotoxicity against human MCF7 cells assessed as reduction in cell viability after 72 hrs by MTT assay; assay type: functional, cell-based; conditions: MCF7, 72 h
MCF7 [35] = experiment: Induction of apoptosis in human MCF7 cells assessed as live cells at 40 uM after 72 hrs by Annexin-V/PI staining based flow cytometry (reference value: 97.7%); assay type: functional
[36] = Octanol-water partition coefficient, log P of the compound at 10 mM after 24 hrs by UV-vis spectroscopic method; assay type: physicochemical
MCF7 [37] = experiment: Induction of apoptosis in human MCF7 cells assessed as late apoptotic cells at 20 uM after 24 hrs by Annexin-V/PI staining based flow cytometry (reference value: 0.96%); assay type: functional
MCF7 [38] = experiment: Cell cycle arrest in human MCF7 cells assessed as accumulation at G2/M phase after 72 hrs by propidium iodide staining based flow cytometry; assay type: functional
MCF7 [39] = experiment: Induction of apoptosis in human MCF7 cells assessed as live cells at 20 uM after 72 hrs by Annexin-V/PI staining based flow cytometry (reference value: 97.7%); assay type: functional
MCF7 [40] = experiment: Cell cycle arrest in human MCF7 cells assessed as accumulation at G1 phase at 20 uM after 72 hrs by propidium iodide staining based flow cytometry (reference value: 66.42%); assay type: functional
MCF7 [41] = experiment: Cell cycle arrest in human MCF7 cells assessed as accumulation at S phase at 20 uM after 72 hrs by propidium iodide staining based flow cytometry (reference value: 15.59%); assay type: functional
MCF7 [42] = experiment: Induction of apoptosis in human MCF7 cells assessed as early apoptotic cells at 20 uM after 24 hrs by Annexin-V/PI staining based flow cytometry (reference value: 0.13%); assay type: functional
MCF7 [43] = experiment: Cell cycle arrest in human MCF7 cells assessed as accumulation at G2/M phase at 20 uM after 24 hrs by propidium iodide staining based flow cytometry (reference value: 6.91%); assay type: functional
MCF7 [44] = experiment: Induction of apoptosis in human MCF7 cells assessed as early apoptotic cells at 10 uM after 24 hrs by Annexin-V/PI staining based flow cytometry (reference value: 0.13%); assay type: functional
C6 = experiment: Cytotoxicity against rat C6 cells assessed as reduction in cell viability after 72 hrs by MTT assay; assay type: functional, cell-based; conditions: C6, 72 h
MCF7 [45] = experiment: Induction of apoptosis in human MCF7 cells assessed as late apoptotic cells at 40 uM after 24 hrs by Annexin-V/PI staining based flow cytometry (reference value: 0.96%); assay type: functional
HepG2 = experiment: Cytotoxicity against human HepG2 cells assessed as reduction in cell viability after 72 hrs by MTT assay; assay type: functional, cell-based; conditions: HepG2, 72 h
MCF7 [46] = experiment: Cell cycle arrest in human MCF7 cells assessed as accumulation at G2/M phase at 20 uM after 72 hrs by propidium iodide staining based flow cytometry (reference value: 17.99%); assay type: functional
MCF7 [47] = experiment: Induction of apoptosis in human MCF7 cells assessed as late apoptotic cells at 20 uM after 72 hrs by Annexin-V/PI staining based flow cytometry (reference value: 0.60%); assay type: functional
Quadruplex DNA [48] = experiment: Binding affinity to c-Myc G-quadruplex DNA (unknown origin) assessed as hypochromism at 20 uM incubated for 3 mins by electronic absorption spectra method; assay type: nucleic-acid assay
MCF7 [49] = experiment: Cell cycle arrest in human MCF7 cells assessed as accumulation at G2/M phase at 10 uM after 72 hrs by propidium iodide staining based flow cytometry (reference value: 17.99%); assay type: functional
MCF7 [50] = experiment: Induction of apoptosis in human MCF7 cells assessed as necrotic cells at 40 uM after 24 hrs by Annexin-V/PI staining based flow cytometry (reference value: 4.03%); assay type: functional
MCF7 [51] = experiment: Induction of apoptosis in human MCF7 cells assessed as necrotic cells at 10 uM after 24 hrs by Annexin-V/PI staining based flow cytometry (reference value: 4.03%); assay type: functional
MCF7 [52] = experiment: Cell cycle arrest in human MCF7 cells assessed as accumulation at G1 phase at 10 uM after 72 hrs by propidium iodide staining based flow cytometry (reference value: 66.42%); assay type: functional

## CC(=O)OC1OC(=O)C(Br)=C1Nc1ccc(-c2ccc(N)cc2)cc1 (centres undefined)
[1]
  IC50: 55.1 µM
MCF7 [2]
  Activity: 55.63%
MCF7 [3]
  Activity: 9.61%
MCF7 [4]
  Activity: 4.08%
MCF7 [5]
  Activity: 2.59%
Quadruplex DNA [6]
  Activity: Active
MCF7 [7]
  Activity: 35.13%
MCF7 [8]
  Activity: 0.67%
MCF7 [9]
  Activity: 4.94%
MCF7 [10]
  Activity: 95.21%
MCF7 [11]
  Activity: 44.37%
MCF7 [12]
  Activity: inactive
MCF7 [13]
  Activity: 15.56%
HaCaT
  IC50: > 100 µM
MCF7 [14]
  Activity: 66.44%
MCF7 [15]
  Activity: 20.5%
MCF7 [16]
  Activity: 21.11%
MCF7 [17]
  Activity: 26.45%
MCF7 [18]
  Activity: 95.28%
MCF7 [19]
  Activity: 1.19%
MCF7 [20]
  Activity: 95.8%
MDA-MB-231
  IC50: 33.7 µM
MCF7 [21]
  Activity: 0.32%
MCF7 [22]
  Activity: 0.47%
CNE
  IC50: 49.4 µM
MCF7 [23]
  Activity: 68.3%
Quadruplex DNA [24]
  Activity: Dose-dependent effect
MCF7 [25]
  Activity: 3.2%
MCF7 [26]
  Activity: 17.92%
MCF7 [27]
  Activity: 4.59%
Quadruplex DNA [28]
  K: 1.6 ×10⁷ /M
MCF7 [29]
  Activity: 0.13%
MCF7 [30]
  Activity: 23.95%
MCF7 [31]
  Activity: 0.55%
Quadruplex DNA [32]
  Activity: inactive
MCF7 [33]
  Activity: 96.89%
MCF7 [34]
  IC50: 11.8 µM
MCF7 [35]
  Activity: 93.39%
[36]
  logP at 24 h, 10000 µM: 1.76
MCF7 [37]
  Activity: 0.07%
MCF7 [38]
  Activity: Dose-dependent effect
MCF7 [39]
  Activity: 96.19%
MCF7 [40]
  Activity: 61.38%
MCF7 [41]
  Activity: 15.18%
MCF7 [42]
  Activity: 0.13%
MCF7 [43]
  Activity: 10.59%
MCF7 [44]
  Activity: 0.16%
C6
  IC50: 15.4 µM
MCF7 [45]
  Activity: 0.5%
HepG2
  IC50: 35.3 µM
MCF7 [46]
  Activity: 23.44%
MCF7 [47]
  Activity: 0.67%
Quadruplex DNA [48]
  Activity: 28%
MCF7 [49]
  Activity: 20.53%
MCF7 [50]
  Activity: 0.14%
MCF7 [51]
  Activity: 2.82%
MCF7 [52]
  Activity: 63.91%

## CC(=O)OC1OC(=O)C(Br)=C1Nc1ccc(-c2ccccc2)cc1 (centres undefined)
[1]
  IC50: 34.9 µM
Quadruplex DNA [6]
  Activity: Active
HaCaT
  IC50: 91.4 µM
MDA-MB-231
  IC50: 60.2 µM
CNE
  IC50: 81.7 µM
Quadruplex DNA [28]
  K: 9.4 ×10⁶ /M
Quadruplex DNA [32]
  Activity: inactive
MCF7 [34]
  IC50: 37.3 µM
[36]
  logP at 24 h, 10000 µM: 1.31
C6
  IC50: 44.4 µM
HepG2
  IC50: 27.4 µM
Quadruplex DNA [48]
  Activity: 17%
